Data as given in patent US9981976B2, “Piperidine substituted pyrazolo[1,5-A]pyrimidine derivatives with inhibitory activity on the replication of the respiratory syncytial virus (RSV)” (priority 2014, dated 2018).

Tests used:
[1] = system: rgRSV224 virus; assay: microbe, parasite or virus in culture; format: cell-based, respiratory syncytial virus (RSV); details: human respiratory syncytial virus, HeLa, 72 h, read-out: RSV HELA pEC50, rgRSV224 virus (MOI=1), HeLa cells, GFP expression three days post-virus exposure (converted)
[2] = system: HeLa cells; assay: Cytotoxicity in HeLa cells, ATP content (ATPlite kit); details: three days incubation, CC50 = 50% concentration for cytotoxicity
Experimental: Black 384-well clear-bottom microtiter plates (Corning, Amsterdam, The Netherlands) were filled via acoustic drop ejection using the echo liquid handler (Labcyte, Sunnyvale, Calif.). 200 nL of compound stock solutions (100% DMSO) were transferred to the assay plates. 9 serial 4-fold dilutions of compound were made, creating per quadrant the same compound concentration. The assay was initiated by adding 10 μL of culture medium to each well (RPMI medium without phenol red, 10% FBS-heat inactivated, 0.04% gentamycin (50 mg/mL). All addition steps are done by using a multidrop dispenser (Thermo Scientific, Erembodegem, Belgium). Next, rgRSV224 virus (MOI=1) diluted in culture medium was added to the plates. rgRSV224 virus is an engineered virus that includes an additional GFP gene (Hallak L K, Spillmann D, Collins P L, Peeples M E. Glycosaminoglycan sulfation requirements for respiratory syncytial virus infection; Journal of virology (2000), 74(22), 10508-13) and was in-licensed from the NIH (Bethesda, Md., USA). Finally, 20 μL of a HeLa cell suspension (3,000 cells/well) were plated. Medium, virus- and mock-infected controls were included in each test. The wells contain 0.05% DMSO per volume. Cells were incubated at 37° C. in a 5% CO2 atmosphere. Three days post-virus exposure, viral replication was quantified by measuring GFP expression in the cells by an in house developed MSM laser microscope (Tibotec, Beerse, Belgium). The EC50 was defined as the 50% inhibitory concentration for GFP expression. In parallel, compounds were incubated for three days in a set of white 384-well microtiter plates (Corning) and the cytotoxicity of compounds in HeLa cells was determined by measuring the ATP content of the cells using the ATPlite kit (Perkin Elmer, Zaventem, Belgium) according to the manufacturer's instructions. The CC50 was defined as the 50% concentration for cytotoxicity.

Compound | EC50 [1] [µM] | SI TOX HELA [2]
Cc1ccc2nc(C)nc(N3CCCC[C@@H]3c3cc4nc(N5CC(O)C5)c(C)cn4n3)c2c1 [P44, (R)-1-(2-(1-(2,6-dimethyl-quinazolin-4-yl)piperidin-2-yl)-6-methylpyrazolo[1,5-a]pyrimidin-5-yl)azetidin-3-ol] | 0.794 | 4.2
Cc1ccc2ncnc(N3CCCC[C@@H]3c3cc4nc(N5CC[C@H](N)C5)ccn4n3)c2c1 [P50, (S)-1-(2-((R)-1-(6-methylquinazolin-4-yl)piperidin-2-yl)pyrazolo-[1,5-a]pyrimidin-5-yl)pyrrolidin-3-amine] | 0.631 | 4.3
Cc1cn2nc(C3CCCCN3c3ncnc4cccc(C)c34)cc2nc1N1CC(N)C1 (centres unmarked) [P26, 1-(6-methyl-2-(1-(5-methylquinazolin-4-yl)piperidin-2-yl)pyrazolo-[1,5-a]pyrimidin-5-yl)azetidin-3-amine] | 0.0251 | 4.3
Cc1cccc2ncnc(N3CCCCC3c3cc4nc(N5CCC5)cc(N5CCN(C(=O)NC(C)C)CC5)n4n3)c12 (centres unmarked) [P54, 4-(5-(azetidin-1-yl)-2-(1-(5-methylquinazolin-4-yl)piperidin-2-yl)-pyrazolo[1,5-a]pyrimidin-7-yl)-N-isopropylpiperazine-1-carboxamide] | 0.0251 | 4.5
CSc1nc(N2CCCCC2c2cc3nc(N4CCC4)cc(N4CCOCC4)n3n2)c2cc(C)ccc2n1 (centres unmarked) [P57, 4-(5-(azetidin-1-yl)-2-(1-(6-methyl-2-(methylthio)quinazolin-4-yl)-piperidin-2-yl)pyrazolo[1,5-a]pyrimidin-7-yl)morpholine] | 0.631 | 4.5
Cc1cccc2ncnc(N3CCCCC3c3cc4nc(N5CCC5)cc(N5CCN(C(=O)OC(C)(C)C)CC5)n4n3)c12 (centres unmarked) [P52, tert-butyl4-(5-(azetidin-1-yl)-2-(1-(5-methylquinazolin-4-yl)piperidin-2-yl)pyrazolo[1,5-a]pyrimidin-7-yl)piperazine-1-carboxylate] | 0.0794 | 4.7
Cc1cn2nc(C3CCCCN3c3nc(NS(C)(=O)=O)nc4cccc(C)c34)cc2nc1N1CC(O)C1 (centres unmarked) [P41, N-(4-(2-(5-(3-hydroxyazetidin-1-yl)-6-methylpyrazolo[1,5-a]-pyrimidin-2-yl)piperidin-1-yl)-5-methylquinazolin-2-yl)methanesulfonamide] | 0.0794 | <4
Cc1ccc2nc(C)nc(N3CCCCC3c3cc4nc(N5CC(O)C5)c(C)cn4n3)c2c1 (centres unmarked) [P42, 1-(2-(1-(2,6-dimethylquinazolin-4-yl)piperidin-2-yl)-6-methyl-pyrazolo[1,5-a]pyrimidin-5-yl)azetidin-3-ol] | 2.51 | <4.6
Cc1ccc2nc(C)nc(N3CCCC[C@H]3c3cc4nc(N5CC(O)C5)c(C)cn4n3)c2c1 [P43, (S)-1-(2-(1-(2,6-dimethylquinazolin-4-yl)piperidin-2-yl)-6-methyl-pyrazolo[1,5-a]pyrimidin-5-yl)azetidin-3-ol] | 15.8 | 4.2
Cc1nc(N2CCCCC2c2cc3nc(N4CC(O)C4)c(C)cn3n2)c2c(C)cccc2n1 (centres unmarked) [P37, 1-(2-(1-(2,5-dimethylquinazolin-4-yl)piperidin-2-yl)-6-methyl-pyrazolo[1,5-a]pyrimidin-5-yl)azetidin-3-ol] | 0.316 | 4.3
Cc1cccc2nc(C(=O)O)nc(N3CCCCC3c3cc4nc(N5CCC5)cc(N5CCOCC5)n4n3)c12 (centres unmarked) [P68, 4-(2-(5-(azetidin-1-yl)-7-morpholinopyrazolo[1,5-a]pyrimidin-2-yl)-piperidin-1-yl)-5-methylquinazoline-2-carboxylic acid] | 0.316 | <4.6
Cc1ccc(C)c2c(N3CCCCC3c3cc4nc(N5CCC5)cc(N5CCOCC5)n4n3)ncnc12 (centres unmarked) [P66, 4-(5-(azetidin-1-yl)-2-(1-(5,8-dimethylquinazolin-4-yl)piperidin-2-yl)-pyrazolo[1,5-a]pyrimidin-7-yl)morpholine] | 0.1 | 
